Assay: wn = mass fraction of the nth substance listed
Settings: Pendant drop shape

O [water] + [I-].[K+]
w2 = 0
Settings | surface tension liquid-gas [mN/m]
293.15 K | 72.75
298.15 K | 71.97
303.15 K | 71.15
313.15 K | 69.55
323.15 K | 67.9
333.15 K | 66.17

O [water] + [Cl-].[K+]
w2 = 0
Settings | surface tension liquid-gas [mN/m]
293.15 K | 72.75
303.15 K | 71.15
313.15 K | 69.55
323.15 K | 67.9
333.15 K | 66.17
343.15 K | 64.39
353.15 K | 62.61

O [water] + [Br-].[K+]
w2 = 0
Settings | surface tension liquid-gas [mN/m]
293.15 K | 72.75
303.15 K | 71.15
313.15 K | 69.55
323.15 K | 67.9
333.15 K | 66.17
343.15 K | 64.39
353.15 K | 62.61

O [water] + [Br-].[Na+]
w2 = 0
Settings | surface tension liquid-gas [mN/m]
293.15 K | 72.75
303.15 K | 71.15
313.15 K | 69.55
323.15 K | 67.9
333.15 K | 66.17
343.15 K | 64.39
353.15 K | 62.61

[Br-].[K+] [potassium bromide] + O
surface tension liquid-gas [mN/m]
Settings | w1 = 0.05 | w1 = 0.1 | w1 = 0.15 | w1 = 0.2 | w1 = 0.25 | w1 = 0.3 | w1 = 0.35 | w1 = 0.4
293.15 K | 73.93 | 74.51 | 74.9 | 75.3 | 76.16 | 77.43 | 78.85 | 80.3
303.15 K | 72.42 | 73.05 | 73.27 | 73.82 | 74.82 | 76.15 | 77.51 | 78.92
313.15 K | 70.85 | 71.44 | 71.74 | 72.29 | 73.39 | 74.72 | 76.17 | 77.58
323.15 K | 69.14 | 69.86 | 70.21 | 70.82 | 71.86 | 73.23 | 74.64 | 76.06
333.15 K | 67.31 | 67.95 | 68.49 | 69.25 | 70.24 | 71.64 | 73.11 | 74.53
343.15 K | 65.4 | 66.14 | 66.77 | 67.46 | 68.61 | 69.93 | 71.39 | 72.87
353.15 K | 63.44 | 64.11 | 64.86 | 65.73 | 66.79 | 68.15 | 69.57 | 71.22

[I-].[K+] [potassium iodide] + O
surface tension liquid-gas [mN/m]
Settings | 293.15 K | 298.15 K | 303.15 K | 313.15 K | 323.15 K | 333.15 K
w1 = 0.01 | 73.24 | 72.53 | 71.81 | 70.45 | 68.95 | 67.52
w1 = 0.02 | 73.65 | 73 | 72.35 | 71.05 | 69.69 | 68.36
w1 = 0.03 | 74.15 | 73.57 | 72.85 | 71.62 | 70.32 | 68.95
w1 = 0.04 | 75.05 | 74.45 | 73.7 | 72.4 | 71.2 | 69.75
w1 = 0.05 | 75.44 | 74.79 | 74 | 72.7 | 71.47 | 69.98
w1 = 0.06 | 76.12 | 75.4 | 74.75 | 73.39 | 72.15 | 70.53
w1 = 0.07 | 76.76 | 76.04 | 75.39 | 74.09 | 72.6 | 70.97
w1 = 0.08 | 77.23 | 77.03 | 76.15 | 74.96 | 73.86 | 72.7
w1 = 0.09 | 78.32 | 77.68 | 77.09 | 75.86 | 74.62 | 73.19
w1 = 0.1 | 79.11 | 78.6 | 78 | 76.83 | 75.66 | 74.36
w1 = 0.11 | 80.21 | 79.5 | 78.84 | 77.67 | 76.43 | 75.26
w1 = 0.12 | 81.04 | 80.2 | 79.51 | 78.4 | 77.16 | 75.86
